Two compounds from US6107310A, “Heteroarylcarboxamide derivatives for treating CNS disorders” (Knoll Aktiengesellschaft, priority 1995, dated 2000) can be followed below.

As usually defined, the Ki is the equilibrium dissociation constant of an inhibitor or competing ligand from its target.

Parameters in all cases: species or system rat (male Charles River CD)
The target of assay [1] is T1, D2-like dopamine receptors (Rattus norvegicus, UniProt P61169).
T1 construct: Striatal tissue from the brains of male Charles River CD rats; from tissue; host or cells: rat striatum (male Charles River CD rats), membrane preparation
T1 sequence (P61169 whole entry): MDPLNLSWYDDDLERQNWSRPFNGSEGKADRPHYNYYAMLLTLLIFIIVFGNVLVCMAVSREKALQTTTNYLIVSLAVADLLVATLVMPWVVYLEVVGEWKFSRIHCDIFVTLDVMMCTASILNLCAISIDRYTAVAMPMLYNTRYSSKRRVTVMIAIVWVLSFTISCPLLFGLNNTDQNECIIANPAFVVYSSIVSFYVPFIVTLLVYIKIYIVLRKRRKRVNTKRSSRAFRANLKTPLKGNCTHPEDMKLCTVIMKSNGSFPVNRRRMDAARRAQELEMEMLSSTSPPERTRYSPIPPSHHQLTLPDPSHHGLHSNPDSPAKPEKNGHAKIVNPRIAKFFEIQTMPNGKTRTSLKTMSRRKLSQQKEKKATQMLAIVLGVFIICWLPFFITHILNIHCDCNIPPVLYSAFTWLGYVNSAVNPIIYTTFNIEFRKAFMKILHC
Kind of assay: inhibition of tritiated (S)-sulpiride binding to D2-like dopamine receptors in rat striatal tissue. Conditions: rat striatum. The protocol: Striatal tissue from the brains of male Charles River CD rats weighing between 140-250 g were homogenised in ice-cold 50 mM Tris-HCl buffer (pH 7.7 when measured at 25° C.) and centrifuged at 40,000 g for 10 minutes. The pellet was resuspended in Tris salts buffer (50 mM Tris-HCl buffer containing 120 mM NaCl, 5 mM KCl, 2 mM CaCl2 and 1 mM MgCl2 with the addition of 6 mM ascorbic acid; pH 7.7 when measured at 25° C.), and again centrifuged at 40,000 g for 10 minutes. The final pellet was stored at -80° C. Before each test the pellet was resuspended in Tris salts buffer (equivalent to 2 mg wet weight of tissue/ml). […]
The filters were washed with ice-cold Tris-HCl buffer and dried. The filters were punched out in to vials, scintillation fluid added and were left for about 20 hours before being counted by scintillation spectrophotometry. The percentage displacement of specific binding of the tritiated ligand was calculated for the single concentration (10^-6 M) of test compound. […] The inhibition coefficient Ki was then calculated using the formula [formula] in which [ligand] is the concentration of the tritiated ligand used and KD is the equilibrium dissociation constant for the ligand.

The subject of assay [2] is α1-adrenoceptors. In words: inhibition of [7-methoxy-3H]prazosin binding to α1-adrenoceptors in rat whole cortical tissue. The note with it: rat cortex. The protocol: Whole cortical tissue from the brains of male Charles River CD rats weighing between 150-250 g were homogenised in ice-cold 50 mM Tris-HCl, pH 7.6 (at 25° C.; 1:40 w/v) and centrifuged at 1000 g at 4° C. for 10 minutes. The supernatant was centrifuged at 30,000 g at 4° C. for 10 minutes. The pellet was rehomogenised in 50 mM Tris-HCl, pH 7.6 (1:40 w/v) and centrifuged at 30,000 g at 4° C. for 10 minutes. The final pellet was resuspended in 50 mM Tris-HCl, pH 7.6 (equivalent to 12.5 mg wet weight of tissue/ml) and used immediately in the binding assay. […]
(§1) The filters were washed with ice-cold Tris-HCl buffer and dried. The filters were punched out into vials, scintillation fluid added and radioactivity determined by liquid scintillation counting. The percentage displacement of specific binding of the tritiated ligand was calculated for the single concentration (10^-6 M) of test compound. […] The inhibition coefficient Ki was then calculated using the formula [formula] in which [ligand] is the concentration of the tritiated ligand used and KD is the equilibrium dissociation constant for the ligand.

Assay [3] deals with T2, 5-HT1A receptors (Rattus norvegicus, UniProt P19327).
T2 construct: Hippocampal tissue from the brains of male Charles River CD rats; from tissue; host or cells: rat hippocampus (male Charles River CD rats), membrane preparation
T2 sequence (P19327 1-422): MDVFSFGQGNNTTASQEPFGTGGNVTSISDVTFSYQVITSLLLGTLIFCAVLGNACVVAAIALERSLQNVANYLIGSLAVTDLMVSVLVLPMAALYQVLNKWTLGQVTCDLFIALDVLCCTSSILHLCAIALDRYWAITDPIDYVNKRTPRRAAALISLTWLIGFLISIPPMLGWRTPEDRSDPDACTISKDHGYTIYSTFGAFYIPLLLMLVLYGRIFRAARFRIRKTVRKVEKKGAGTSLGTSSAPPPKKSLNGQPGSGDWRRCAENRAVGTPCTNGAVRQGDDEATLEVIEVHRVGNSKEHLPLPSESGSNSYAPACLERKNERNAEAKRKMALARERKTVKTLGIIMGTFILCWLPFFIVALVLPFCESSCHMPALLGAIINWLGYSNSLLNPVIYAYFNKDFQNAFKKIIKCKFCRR
In words: inhibition of [3H]8-OH-DPAT binding to 5-HT1A receptors in rat hippocampal tissue. The note with it: rat hippocampus. The protocol:
Hippocampal tissue from the brains of male Charles River CD rats weighing between 150-250 g were homogenised in ice-cold 50 mM Tris-HCI buffer (pH 7.7) when measured at 25° C., 1:40 w/v) and centrifuged at 30,000 g at 4° C. for 10 minutes. The pellet was rehomogenised in the same buffer, incubated at 37° C. for 10 minutes and centrifuged at 30,000 g at 4° C. for 10 minutes. The final pellet was resuspended in 50 mM Tris-HCl buffer (pH 7.7) containing 4 mM CaCl2, 0.1% L-ascorbic acid and 10 μM pargyline hydrochloride (equivalent to 6.25 mg wet weight of tissue/ml) and used immediately in the binding assay. […]
as §1

Counter-ions that a name gives are not always drawn.

For `O=C(NCC1CCN(C[C@H]2COc3ccc4[nH]ccc4c3O2)CC1)c1ccccn1` [Example 2, (S)-N-{[1-(2,3-dihydro-7H-1,4-dioxino[2,3-e]indol-2-ylmethyl)-4-piperidyl]methyl}pyridine-2-carboxamide 1.3 fumarate, 0.25 diethyl ether, 1.0 hydrate], the inhibition at 1 µM amounted to 122% in assay [1] (10^-6 M, tritiated (S)-sulpiride, read-out: % displacement at 10^-6 M (D2-like)) and 99% in assay [3] (10^-6 M, [3H]8-OH-DPAT, read-out: % displacement at 10^-6 M (5-HT1A)). In assay [2] (10^-6 M, [7-methoxy-3H]prazosin, 30 min, 1 µM), the “% displacement at 10^-6 M (α1)” value is reported as 93%.

With `Nc1ncccc1C(=O)NCC1CCN(C[C@H]2COc3ccc4[nH]ccc4c3O2)CC1` [Example 1, (S)-2-amino-N-{[1-(2,3-dihydro-7H-1,4-dioxino[2,3-e]indol-2-ylmethyl)-4-piperidyl]methyl}pyridine-3-carboxamide], the Ki in assay [1] (tritiated (S)-sulpiride 1 nM, 4° C., 40 minutes) was determined as 7.6 nM; in assay [2] ([7-methoxy-3H]prazosin 0.1 nM, 30° C., 30 minutes) it was 12.4 nM; in assay [3] ([3H]8-OH-DPAT 2 nM, 25° C., 30 minutes), 3.1 nM.
